We go through 14 molecules from ChEMBL document CHEMBL5518234, “Structure-Guided Discovery of Potent and Selective CLK2 Inhibitors for the Treatment of Knee Osteoarthritis” (J Med Chem, 2024).

As usually defined, the IC50 is the concentration needed to halve the response being measured. Low readings indicate greater potency, high ones weaker potency. By inhibition is commonly meant how much of the control response was suppressed.

Test [1] deals with Dual specificity protein kinase CLK3 (Homo sapiens, UniProt P49761).
Sequence of Dual specificity protein kinase CLK3 (P49761 whole entry): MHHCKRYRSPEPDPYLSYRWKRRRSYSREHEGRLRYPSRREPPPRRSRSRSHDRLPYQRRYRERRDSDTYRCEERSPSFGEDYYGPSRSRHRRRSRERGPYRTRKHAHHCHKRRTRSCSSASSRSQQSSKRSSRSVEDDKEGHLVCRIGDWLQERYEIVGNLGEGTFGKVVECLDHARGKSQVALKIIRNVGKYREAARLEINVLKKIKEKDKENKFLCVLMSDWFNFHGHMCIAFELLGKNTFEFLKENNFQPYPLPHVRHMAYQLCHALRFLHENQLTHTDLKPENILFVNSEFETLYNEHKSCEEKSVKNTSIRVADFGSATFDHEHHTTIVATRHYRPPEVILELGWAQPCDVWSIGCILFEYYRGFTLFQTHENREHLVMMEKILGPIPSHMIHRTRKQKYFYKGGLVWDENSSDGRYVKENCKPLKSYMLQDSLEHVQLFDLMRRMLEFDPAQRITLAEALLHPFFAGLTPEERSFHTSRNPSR
Description: Inhibition of CLK3 (unknown origin) incubated for 10 mins in presence of ATP
Test [2] addresses T1, Dual specificity tyrosine-phosphorylation-regulated kinase 1A (Homo sapiens, UniProt Q13627). As to conditions: dose 100.0 nM.
Description: Inhibition of DYRKIA (unknown origin) at 100 nM relative to control
Test [3] concerns the target Homeodomain-interacting protein kinase 2 (Homo sapiens) (UniProt Q9H2X6). As to conditions: dose 100.0 nM.
Description: Inhibition of HIPK2 (unknown origin) at 100 nM relative to control
Test [4] addresses T2, Dual specificity protein kinase CLK4 (Homo sapiens, UniProt Q9HAZ1). Conditions: dose 100.0 nM.
Target sequence in this assay (Q9HAZ1 whole entry, looked up): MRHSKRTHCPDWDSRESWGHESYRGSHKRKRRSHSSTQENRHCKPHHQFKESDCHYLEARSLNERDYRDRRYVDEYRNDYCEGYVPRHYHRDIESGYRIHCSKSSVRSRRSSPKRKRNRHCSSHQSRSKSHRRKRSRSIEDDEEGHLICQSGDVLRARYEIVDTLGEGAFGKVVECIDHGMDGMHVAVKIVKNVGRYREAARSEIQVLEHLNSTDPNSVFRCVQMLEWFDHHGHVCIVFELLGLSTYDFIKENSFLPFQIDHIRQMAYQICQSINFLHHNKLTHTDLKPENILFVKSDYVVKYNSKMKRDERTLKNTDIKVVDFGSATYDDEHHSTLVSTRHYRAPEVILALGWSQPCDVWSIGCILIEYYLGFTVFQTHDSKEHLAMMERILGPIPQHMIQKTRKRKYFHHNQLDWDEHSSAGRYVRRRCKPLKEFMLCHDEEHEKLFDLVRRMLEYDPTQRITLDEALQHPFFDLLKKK
Description: Inhibition of CLK4 (unknown origin) at 100 nM relative to control
For test [5], the target named is Serine/threonine-protein kinase pim-3 (Homo sapiens) (UniProt Q86V86). Conditions: dose 100.0 nM.
Description: Inhibition of PIM3 (unknown origin) at 100 nM relative to control
The target of test [6] is TRAF2 and NCK-interacting protein kinase (Homo sapiens) (UniProt Q9UKE5). As to conditions: dose 100.0 nM.
Sequence of TRAF2 and NCK-interacting protein kinase (Homo sapiens) (Q9UKE5 whole entry, looked up): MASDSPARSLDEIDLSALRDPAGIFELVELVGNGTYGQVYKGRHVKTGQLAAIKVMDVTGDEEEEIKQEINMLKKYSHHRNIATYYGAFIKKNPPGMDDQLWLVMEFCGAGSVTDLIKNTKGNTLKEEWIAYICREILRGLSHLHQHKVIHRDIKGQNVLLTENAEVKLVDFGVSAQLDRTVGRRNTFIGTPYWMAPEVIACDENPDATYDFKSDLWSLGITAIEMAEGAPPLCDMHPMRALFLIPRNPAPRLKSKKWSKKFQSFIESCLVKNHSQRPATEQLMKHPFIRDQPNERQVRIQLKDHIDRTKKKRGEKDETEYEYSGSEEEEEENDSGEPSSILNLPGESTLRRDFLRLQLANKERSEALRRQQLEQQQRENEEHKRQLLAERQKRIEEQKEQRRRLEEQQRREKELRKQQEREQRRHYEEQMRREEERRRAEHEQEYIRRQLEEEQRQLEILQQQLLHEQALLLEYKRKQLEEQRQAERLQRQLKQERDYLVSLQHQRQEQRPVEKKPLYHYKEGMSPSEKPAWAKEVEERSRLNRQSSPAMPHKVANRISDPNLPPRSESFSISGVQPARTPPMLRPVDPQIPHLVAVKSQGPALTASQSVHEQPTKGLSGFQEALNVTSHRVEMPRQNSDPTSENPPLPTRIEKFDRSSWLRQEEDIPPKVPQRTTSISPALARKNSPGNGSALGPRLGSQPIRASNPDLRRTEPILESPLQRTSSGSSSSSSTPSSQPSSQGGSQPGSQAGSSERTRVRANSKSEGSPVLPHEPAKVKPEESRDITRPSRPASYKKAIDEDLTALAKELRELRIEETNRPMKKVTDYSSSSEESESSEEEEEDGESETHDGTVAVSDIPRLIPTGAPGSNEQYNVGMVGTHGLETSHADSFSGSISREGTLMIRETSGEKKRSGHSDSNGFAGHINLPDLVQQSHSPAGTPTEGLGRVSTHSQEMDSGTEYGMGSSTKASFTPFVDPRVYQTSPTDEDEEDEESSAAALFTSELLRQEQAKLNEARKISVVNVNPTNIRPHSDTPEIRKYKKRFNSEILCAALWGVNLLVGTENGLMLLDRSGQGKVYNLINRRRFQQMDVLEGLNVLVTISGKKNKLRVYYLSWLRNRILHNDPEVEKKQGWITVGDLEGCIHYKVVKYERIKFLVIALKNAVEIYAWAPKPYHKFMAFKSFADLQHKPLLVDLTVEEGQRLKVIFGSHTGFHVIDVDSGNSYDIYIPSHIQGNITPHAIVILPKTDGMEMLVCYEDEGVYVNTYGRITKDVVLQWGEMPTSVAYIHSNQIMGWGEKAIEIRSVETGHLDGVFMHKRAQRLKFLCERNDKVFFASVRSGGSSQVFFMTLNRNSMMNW
Description: Inhibition of TNIK (unknown origin) at 100 nM relative to control
Test [7] has as its target Dual specificity tyrosine-phosphorylation-regulated kinase 1B (Homo sapiens) (UniProt Q9Y463). As to conditions: dose 100.0 nM.
Description: Inhibition of DYRK1B (unknown origin) at 100 nM relative to control
The target of test [8] is T1, Dual specificity tyrosine-phosphorylation-regulated kinase 1A.
Description: Inhibition of DYRK1A (unknown origin) incubated for 10 mins in presence of ATP
The target of test [9] is Receptor-type tyrosine-protein kinase FLT3 (Homo sapiens) (UniProt P36888). As to conditions: dose 100.0 nM.
Sequence of Receptor-type tyrosine-protein kinase FLT3 (Homo sapiens) (P36888 whole entry): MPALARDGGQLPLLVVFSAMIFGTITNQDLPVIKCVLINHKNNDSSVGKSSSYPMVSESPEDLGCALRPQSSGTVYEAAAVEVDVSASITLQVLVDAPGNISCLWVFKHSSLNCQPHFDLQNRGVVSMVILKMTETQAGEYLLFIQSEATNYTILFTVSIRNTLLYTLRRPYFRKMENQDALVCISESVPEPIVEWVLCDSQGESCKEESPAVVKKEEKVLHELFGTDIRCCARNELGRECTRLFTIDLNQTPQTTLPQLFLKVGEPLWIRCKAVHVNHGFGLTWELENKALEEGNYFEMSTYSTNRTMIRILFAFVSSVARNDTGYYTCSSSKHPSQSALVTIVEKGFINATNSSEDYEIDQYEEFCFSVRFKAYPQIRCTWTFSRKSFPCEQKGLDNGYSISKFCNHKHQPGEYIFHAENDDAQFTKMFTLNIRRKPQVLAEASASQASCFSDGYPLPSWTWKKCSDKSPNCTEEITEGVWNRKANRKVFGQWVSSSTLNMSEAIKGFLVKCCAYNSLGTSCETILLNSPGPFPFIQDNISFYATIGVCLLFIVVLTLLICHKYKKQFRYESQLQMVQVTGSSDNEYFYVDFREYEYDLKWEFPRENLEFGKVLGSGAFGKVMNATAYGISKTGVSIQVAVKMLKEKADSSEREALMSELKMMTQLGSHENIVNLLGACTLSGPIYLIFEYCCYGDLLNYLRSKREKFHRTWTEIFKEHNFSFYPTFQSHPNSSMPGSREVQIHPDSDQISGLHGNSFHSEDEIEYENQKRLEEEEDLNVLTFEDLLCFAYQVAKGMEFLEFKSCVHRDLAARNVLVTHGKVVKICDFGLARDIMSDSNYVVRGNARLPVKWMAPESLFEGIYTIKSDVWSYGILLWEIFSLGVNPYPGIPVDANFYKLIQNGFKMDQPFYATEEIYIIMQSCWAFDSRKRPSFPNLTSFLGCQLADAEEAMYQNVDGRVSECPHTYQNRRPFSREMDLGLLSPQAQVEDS
Description: Inhibition of FLT3 (unknown origin) at 100 nM relative to control
The target in test [10] is T2, Dual specificity protein kinase CLK4.
Target sequence in this assay (Q9HAZ1 whole entry): as the sequence (Q9HAZ1 whole entry, looked up) above
Description: Inhibition of CLK4 (unknown origin) incubated for 10 mins in presence of ATP
Test [11] deals with T3, Dual specificity protein kinase CLK1 (Homo sapiens, UniProt P49759).
Target sequence in this assay (P49759 whole entry): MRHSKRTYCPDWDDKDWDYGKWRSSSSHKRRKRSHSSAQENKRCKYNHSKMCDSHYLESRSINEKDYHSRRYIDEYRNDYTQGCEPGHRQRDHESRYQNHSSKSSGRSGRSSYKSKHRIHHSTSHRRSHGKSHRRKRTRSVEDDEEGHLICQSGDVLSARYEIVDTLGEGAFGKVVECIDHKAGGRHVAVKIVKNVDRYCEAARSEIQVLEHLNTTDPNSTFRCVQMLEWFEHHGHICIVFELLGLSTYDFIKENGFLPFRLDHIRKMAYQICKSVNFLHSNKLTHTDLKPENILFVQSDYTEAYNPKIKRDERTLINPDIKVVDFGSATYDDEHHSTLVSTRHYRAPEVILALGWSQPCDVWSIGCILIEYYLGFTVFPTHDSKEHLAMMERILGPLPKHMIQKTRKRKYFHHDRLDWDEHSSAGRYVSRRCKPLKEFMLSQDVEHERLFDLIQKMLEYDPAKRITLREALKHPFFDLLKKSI
Description: Inhibition of CLK1 (unknown origin) incubated for 10 mins in presence of ATP
The target of test [12] is T3, Dual specificity protein kinase CLK1. As to conditions: dose 100.0 nM.
Target sequence in this assay (P49759 whole entry, looked up): as the sequence (P49759 whole entry) above
Description: Inhibition of CLK1 (unknown origin) at 100 nM relative to control
The target of test [13] is T4, Serine/arginine-rich splicing factor 6 (Rattus norvegicus) (UniProt G3V6S8).
T4 sequence (whole entry): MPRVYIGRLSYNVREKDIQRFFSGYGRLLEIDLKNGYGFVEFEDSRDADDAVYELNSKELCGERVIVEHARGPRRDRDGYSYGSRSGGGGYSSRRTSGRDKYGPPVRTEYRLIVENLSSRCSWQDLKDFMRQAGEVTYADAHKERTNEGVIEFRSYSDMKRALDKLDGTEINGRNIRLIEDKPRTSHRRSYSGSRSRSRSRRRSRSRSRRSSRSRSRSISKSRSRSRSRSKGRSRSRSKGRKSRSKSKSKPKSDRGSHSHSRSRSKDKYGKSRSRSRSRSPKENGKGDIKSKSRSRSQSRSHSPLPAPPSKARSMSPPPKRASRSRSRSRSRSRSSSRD
Conditions: Chondrocyte, dose 10-100 nM, time 1.0 hrs.

For test [14], the target named is Dual specificity protein kinase CLK2 (Homo sapiens, UniProt P49760).
Sequence of Dual specificity protein kinase CLK2 (P49760 whole entry): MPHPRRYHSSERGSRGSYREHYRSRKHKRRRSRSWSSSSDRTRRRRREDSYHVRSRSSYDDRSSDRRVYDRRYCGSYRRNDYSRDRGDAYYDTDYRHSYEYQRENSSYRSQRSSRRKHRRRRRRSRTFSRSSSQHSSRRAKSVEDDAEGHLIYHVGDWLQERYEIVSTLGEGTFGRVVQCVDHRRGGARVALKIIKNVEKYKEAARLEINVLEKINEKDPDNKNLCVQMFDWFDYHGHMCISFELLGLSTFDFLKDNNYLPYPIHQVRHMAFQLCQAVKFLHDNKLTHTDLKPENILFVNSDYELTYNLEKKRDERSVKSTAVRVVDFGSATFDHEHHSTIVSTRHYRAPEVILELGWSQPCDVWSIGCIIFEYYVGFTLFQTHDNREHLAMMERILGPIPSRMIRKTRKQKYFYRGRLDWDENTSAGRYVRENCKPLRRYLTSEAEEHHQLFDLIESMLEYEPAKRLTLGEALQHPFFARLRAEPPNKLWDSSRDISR
Description: Inhibition of CLK2 (unknown origin) incubated for 10 mins in presence of ATP

Where only a bound is given, the exact number is not on record here.

For the molecule `CC(C)CC(=O)Nc1cncc(-c2ccc3[nH]nc(C#Cc4ccc5ccccc5n4)c3c2)c1`, the IC50 in test [1] was more than 100 nM.
Molecule `CC(C)CC(=O)Nc1cncc(-c2ccc3[nH]nc(C#Cc4ccccc4Cl)c3c2)c1` displayed an IC50 in [1] of more than 100 nM.
As for `CC(C)C[C@H](N)COc1cncc(-c2ccc3[nH]nc(C#Cc4cccc(F)c4)c3c2)c1`, in test [1], the IC50 was more than 100 nM.
For the molecule `CC(C)CC(=O)Nc1cncc(-c2ccc3[nH]nc(C#Cc4ccncc4)c3c2)c1`, the IC50 in [1] was more than 100 nM.
Molecule `CC(C)C[C@H](N)COc1cncc(-c2ccc3[nH]nc(C#CC4CC4)c3c2)c1` registered an IC50 in test [1] of more than 100 nM.
With `CC(C)C[C@H](N)COc1cncc(-c2ccc3[nH]nc(C#Cc4ccsc4)c3c2)c1`, the inhibition in [2] amounted to 93.2%; in test [3] it was 93.1%; in test [4], 94.4%; in [5], 92.4%; in [6] it was 94.1%; in [7], 94.7%. Besides, the inhibition in test [9] is 96%; in [12], 97.2%; in [13], “Dose-Dependent Effect”. Also, the IC50 in [1] is more than 100 nM; in [8], 21.7 nM; in [10] it was 3.2 nM; in test [11], 21 nM.
In the case of `Cc1[nH]nc2ccc(-c3cncc(OC[C@@H](N)CC(C)C)c3)cc12`, the IC50 was 12.3 nM in [14], more than 100 nM in test [1] and 37.2 nM in test [8].
For `CC(C)CC(=O)Nc1cncc(-c2ccc3[nH]nc(C#Cc4cccnc4)c3c2)c1`, the IC50 in [1] was 15.6 nM.
In [1], `CC(C)CC(=O)Nc1cncc(-c2ccc3[nH]nc(C#Cc4ncccn4)c3c2)c1` had an IC50 of more than 100 nM.
In the case of `CC(C)CC(=O)Nc1cncc(-c2ccc3[nH]nc(C#CC4CC4)c3c2)c1`, the IC50 in test [1] was more than 100 nM.
`CC(C)CC(=O)Nc1cncc(-c2ccc3[nH]nc(C#Cc4cccc(C(=O)O)c4)c3c2)c1` gave an IC50 in [1] of more than 100 nM.
Turning to `C(#Cc1n[nH]c2ccc(-c3cncc(OCC4CCCN4)c3)cc12)c1ccsc1` (stereo not given), the IC50 was 10 nM in test [14] and more than 100 nM in test [1].
`CC(C)CC(=O)Nc1cncc(-c2ccc3[nH]nc(C#Cc4ccc5cnccc5c4)c3c2)c1` registered an IC50 in test [1] of more than 100 nM.
For `CC(C)CC(=O)Nc1cncc(-c2ccc3[nH]nc(C#Cc4ccc(C=O)cc4)c3c2)c1`, the IC50 in [14] is 10.2 nM; in test [1] it was more than 100 nM.
